Experimental data from patent US4089947A, “Antibiotic compositions containing validamycin compounds” (priority 1976, dated 1978).
“And” between values parts separate entries of the source, which are not always exact repeats. Equal values may be shown once.

Experiments:
Cladosporium fulvum = experiment: Tomato leaf mold control test; assay type: in vivo; conditions: 50 ppm; 14 days after inoculation; inoculated 3 days before application
Protocol: Tomato leaf mold control test
Tomato plants (variety: ponterosa) are planted in 12 cm in diameter pots, one plant per pot. The seedlings 50 days after potting are used, 6 pots/group.
Applied at the rate of 100 ml./6 pots/group as per Experiment 1.
Pathogenic fungi Cladosporium fulvum is cultured on a potato infusion-sucrose plate at 20° C for 14 days, and a suspension of conidia (5×10^5 /ml.) is prepared from the culture.
The plants are spray-inoculated with the suspension 3 days before application of the drug, at the rate of 5 ml. per pot. The pots are kept in an inoculation chamber at 25° C for 24 hours, and, then they are transferred to a greenhouse.
14 days after inoculation, the specific ratio of the average area of lesion in the leaves is measured.

Pellicularia sasakii [1] = experiment: Rice sheath blight control test, preventive (prophylactic); assay type: in vivo; conditions: 10 days after application, untreated 34.4cm
Protocol: (§1) Rice sheath blight control test
(§2) Rice Plants (variety: Kinmaze) are planted in earthen pots 9 cm in diameter, 3 stocks per pot. Seedlings 80 days after potting are tested and 6 pots each of them are grouped.
(§3) Pathogenic fungi Pellicularia sasakii is cultivated on a plate of potato infusion-sugar-agar at 30°C for 48 hours, and its agar disc 10mm in diameter is cut out from a peripheral colony. The disc is inserted into the inside space of the leaf sheath near the soil surface, a disc per stem. The pots are kept in a PVC shelter at the temperature of 32°-25° C and the relative humidity of 100-70%. Inoculation is carried out immediately after the applied drug has been air-dried in the prophylactic test, and 3 days before application in the remedial test.
(§4) 10 days after application of the drug, the length of each stem from ground level to the upper edge of the lesion is directly measured.

Pellicularia sasakii [2] = experiment: Abnormal branching of hyphal tips of Pellicularia sasakii (agar dilution bioassay); assay type: cell-based; conditions: for highest dilution factor that causes an abnormal branching at the hyphal tips of Pellicularia sasakii: 1 mg./ml. aqueous solution as stock solution; for dilution unit (maximum dilution which produces abnormal branching): aqueous solution containing 1000 γ/ml., 27° C for 40 hours
Protocol: Therefore, the bioassay of the antibiotics should be conducted in the following manner.
Pellicularia sasakii is used as the test organism employing plain agar as the assay medium. The test organism is cultivated on a potato (sucrose) agar slant for 2 to 5 days, and the resulting culture is used to inoculate at the center of a 9-cm Petri dish plate of modified Pfeffer's medium, which is then incubated at 27° C for 2 days. By the end of this period, the mycelium will have spread over the entire surface of the plate. The growth on the circumference about 3 to 3.5 cm in radius from the center is cut out with a cork borer and the agar disc thus obtained is used as the inoculum.
A serial dilution series of agar plants containing varying concentrations of the antibiotics is prepared in the same manner as a conventional agar dilution method.
A glass disc of 8 mm in diameter and about 0.2 mm thick, is placed in the center of each of the aforementioned dilution series of agar plates, and the agar disc inoculum is then placed on the glass disc. After incubation at 27° C for 40 hours, the result is evaluated. […] The term dilution unit means the value of maximum dilution which produces such abnormal branching.
Modified Pfeffer's medium, which is employed in this assay, has the following composition.
Before using the medium, the following vitamins are added in the specified amounts. (Weight per ml. of medium)
When a 1 mg./ml. aqueous solution of each of validamycins C, D, E and F and validoxylamines A and B is used as a stock solution, the highest dilution factor that causes an abnormal branching at the hyphal tips of Pellicularia sasakii is as follows.

Solubilities = assay type: physicochemical; conditions: methanol
plant diseases = experiment: Control of plant diseases (general statement); assay type: in vivo; conditions: for controlling effect against plant diseases, for example, the sheath blight of the rice plant: application in vivo; for effectiveness against sheath blight and stem rot of rice plant, damping off and sclerotial blight of vegetables, flowering plants and lumber seedlings: in vivo
Mice = experiment: Acute toxicity in mice, intravenous injection; assay type: in vivo
Protocol: (§5) The toxicity of the antibiotics can be confirmed, for instance, by administering each of the validamycins C, D, E and F, and validoxylamines A and B, intravenously to mice and measuring the LD50 value, or by measuring the median lethal dose (48 hours) for Oryzias latipes.

[3] = tested on: men and beasts, as well as to fish; experiment: Harmlessness to men, beasts and fish (general statement); conditions: in vivo
Oryzias latipes = experiment: Acute toxicity for Oryzias latipes (median lethal dose, 48 hours); assay type: in vivo; conditions: leaving in water solution
Protocol: as §5

[4] = pKa' (neutralization, in aqueous solution); assay type: physicochemical
Description: 3. The elementary analysis, the molecular formulas as calculated therefrom, pKa' values, neutralization equivalents (molecular weight) and optical rotation values are given in Table 2.

useful plants = experiment: Effect on useful plants (general statement); assay type: in vivo; conditions: even when applied in a high concentration
Rhyzoctonia solani = experiment: Cucumber damping-off control test; assay type: in vivo; conditions: 14 days after sowing
Protocol: Cucumber damping-off control test
Rhyzoctonia solani is cultured on barley medium at 28° C for 5 days. A field soil sample is packed into clay pots 9 cm in diameter, which are then sterilized with steam. The chaff inoculum is evenly worked into the cover soil of each pot to the depth of about 3 cm, at the rate of 2g./pot. The pots are kept in an incubation chamber at 28° C for 4 days and, then, transferred to a greenhouse.
As per Experiment 1, the drug is sprayed onto the soil surface at the rate of 30 ml./6 pots/group.
Healthy seeds of cucumber (variety: Yonyo) are sown by burial in the pots immediately after treatment, at the rate of 10 seeds/pot. The pots are then placed in a greenhouse at 32°-28° C.
14 days after sowing, the results are evaluated against the following coefficients of lesion and the degrees of damage are calculated.
Coefficients of lesion (I)
0.5 : Root hairs alone are slightly affected.
1 : Aerial portions near soil surface and roots affected.
2 : Early stage of damping-off.
3 : Affected at germination; growth inhibited.
Degree of damage (%) =(Σ(nI))/3 × N × 100 wherein n means the number of samples corresponding to each coefficient of lesion and N means the total number of plants.

bacteria and fungi = experiment: Antimicrobial potency / growth inhibition in vitro; assay type: cell-based
Pellicularia sasakii [5] = experiment: Rice sheath blight control test, remedial; assay type: in vivo; conditions: inoculation 3 days before application, untreated 34.4cm
Protocol: as §1, §2, §3, §4

Structure (SMILES)	Specific area of lesion (Cladosporium fulvum)	Preventive effect (percent of the average length of lesion/stem per control untreated) (Pellicularia sasakii [1]; 3 ppm)	Preventive effect (percent of the average length of lesion/stem per control untreated) (Pellicularia sasakii [1]; 10 ppm)	Preventive effect (percent of the average length of lesion/stem per control untreated) (Pellicularia sasakii [1]; 30 ppm)	Preventive effect (percent of the average length of lesion/stem per control untreated) (Pellicularia sasakii [1]; 100 ppm)	Preventive effect (percent of the average length of lesion/stem per control untreated) (Pellicularia sasakii [1]; 300 ppm)	highest dilution factor that causes an abnormal branching at the hyphal tips of Pellicularia sasakii (Pellicularia sasakii [2])	dilution unit (maximum dilution which produces abnormal branching) (Pellicularia sasakii [2])	solubility in methanol (Solubilities)	controlling effect against plant diseases, for example, the sheath blight of the rice plant (plant diseases)	effectiveness against sheath blight and stem rot of rice plant, damping off and sclerotial blight of vegetables, flowering plants and lumber seedlings (plant diseases)	LD50 (Mice)	harmfulness to men and beasts, as well as to fish [3]	TLm (Oryzias latipes)	pKa' [4]	effect on germination, growth, yield and other features of useful plants (useful plants)	Degree of damage (Rhyzoctonia solani; 5 ppm)	Degree of damage (Rhyzoctonia solani; 20 ppm)	Degree of damage (Rhyzoctonia solani; 80 ppm)	antimicrobial potency / growth inhibition of bacteria and fungi in vitro (bacteria and fungi)	further results
OCC1=C[C@@H](N[C@@H]2C[C@@H](CO[C@@H]3O[C@H](CO)[C@@H](O)[C@H](O)[C@H]3O)[C@H](O)[C@@H](O)[C@H]2O)[C@H](O)[C@H](O)[C@H]1O [Validamycin D]	18% and 25%	28%	5%	1%	0%	0%	10	10 dilution unit/ml.	soluble	excellent controlling effect	very effective	> 2000 mg/kg	substantially harmless	> 1000 ppm	6.0 ± 0.2	do not substantially affect	100%	93%	0%	no antimicrobial potency	Remedial effect (percent of the average length of lesion/stem per control untreated) (Pellicularia sasakii [5]; 10 ppm): 99%; Remedial effect (percent of the average length of lesion/stem per control untreated) (Pellicularia sasakii [5]; 30 ppm): 20%; Remedial effect (percent of the average length of lesion/stem per control untreated) (Pellicularia sasakii [5]; 100 ppm): 11%; Remedial effect (percent of the average length of lesion/stem per control untreated) (Pellicularia sasakii [5]; 300 ppm): 8%
OCC1CC(NC2C=C(COC3OC(CO)C(O)C(O)C3O)C(O)C(O)C2O)C(O)C(O)C1OC1OC(CO)C(O)C(O)C1O (stereo not drawn) [Validamycin C]	18%	46%	34%	4%	1%	0%	100	100 dilution unit/ml.	more sparingly soluble	excellent controlling effect	very effective	> 2000 mg/kg	substantially harmless	> 1000 ppm	6.0 ± 0.2	do not substantially affect	100%	84%	0%	no antimicrobial potency	Remedial effect (percent of the average length of lesion/stem per control untreated) (Pellicularia sasakii [5]; 3 ppm): 68%; Remedial effect (percent of the average length of lesion/stem per control untreated) (Pellicularia sasakii [5]; 10 ppm): 22%; Remedial effect (percent of the average length of lesion/stem per control untreated) (Pellicularia sasakii [5]; 30 ppm): 12%; Remedial effect (percent of the average length of lesion/stem per control untreated) (Pellicularia sasakii [5]; 100 ppm): 10%; Remedial effect (percent of the average length of lesion/stem per control untreated) (Pellicularia sasakii [5]; 300 ppm): 7%
OCC1=C[C@H](N[C@H]2C[C@H](CO)[C@@H](O[C@@H]3O[C@@H](CO)[C@@H](O[C@H]4O[C@@H](CO)[C@@H](O)[C@H](O)[C@H]4O)[C@H](O)[C@H]3O)[C@@H](O)[C@H]2O)[C@@H](O)[C@H](O)[C@H]1O [Validamycin E]	2%	3%	2%	0%	0%	0%	70,000 - 80,000	80000 dilution unit/ml.	more sparingly soluble	excellent controlling effect	very effective	> 2000 mg/kg	substantially harmless	> 1000 ppm	6.1 ± 0.2	do not substantially affect	10%	0%	0%	no antimicrobial potency	Remedial effect (percent of the average length of lesion/stem per control untreated) (Pellicularia sasakii [5]; 1 ppm): 41%; Remedial effect (percent of the average length of lesion/stem per control untreated) (Pellicularia sasakii [5]; 3 ppm): 14%; Remedial effect (percent of the average length of lesion/stem per control untreated) (Pellicularia sasakii [5]; 10 ppm): 12%; Remedial effect (percent of the average length of lesion/stem per control untreated) (Pellicularia sasakii [5]; 30 ppm): 11%; Remedial effect (percent of the average length of lesion/stem per control untreated) (Pellicularia sasakii [5]; 100 ppm): 5%; Remedial effect (percent of the average length of lesion/stem per control untreated) (Pellicularia sasakii [5]; 300 ppm): 3%
